Laboratory results from a compilation of properties of binary mixtures (doi:10.1016/j.molliq.2008.06.014).

Assay: xn = mol fraction of the nth substance listed
Details: 101 kPa

CCCC[n+]1ccn(C)c1.F[P-](F)(F)(F)(F)F + NCCO
Details	electrical conductivity [S/m]	viscosity [mPa·s]
288.15 K, x2 = 0	0.105	350
288.15 K, x2 = 0.1185	0.124	220
288.15 K, x2 = 0.2113	0.144	172
288.15 K, x2 = 0.3052	0.165	141
288.15 K, x2 = 0.387	0.177	–
288.15 K, x2 = 0.4282	0.178	107
288.15 K, x2 = 0.4761	0.186	–
288.15 K, x2 = 0.4918	0.186	93
288.15 K, x2 = 0.5352	0.194	–
288.15 K, x2 = 0.5871	0.2	–
288.15 K, x2 = 0.6161	0.197	70
288.15 K, x2 = 0.6533	0.198	–
288.15 K, x2 = 0.6984	0.194	58
288.15 K, x2 = 0.9592	0.0794	–
293.15 K, x2 = 0	0.142	250
293.15 K, x2 = 0.1185	0.167	159
293.15 K, x2 = 0.2113	0.194	125
293.15 K, x2 = 0.4282	0.239	78
293.15 K, x2 = 0.4761	0.251	–
293.15 K, x2 = 0.4918	0.25	68
293.15 K, x2 = 0.6161	0.262	52
293.15 K, x2 = 0.6533	0.264	–
293.15 K, x2 = 0.6984	0.259	44
293.15 K, x2 = 0.8022	0.243	34
293.15 K, x2 = 0.9028	0.178	27
298.15 K, x2 = 0.1185	0.221	117
298.15 K, x2 = 0.387	0.309	–
298.15 K, x2 = 0.4282	0.312	59
298.15 K, x2 = 0.4761	0.329	–
298.15 K, x2 = 0.4918	0.325	52
298.15 K, x2 = 0.5871	0.347	–
298.15 K, x2 = 0.6161	0.34	39
298.15 K, x2 = 0.6533	0.346	–
298.15 K, x2 = 0.6984	0.34	33
298.15 K, x2 = 0.9028	0.226	21.3
298.15 K, x2 = 0.9592	0.131	–
303.15 K, x2 = 0	0.24	136
303.15 K, x2 = 0.1185	0.286	87
303.15 K, x2 = 0.2113	0.33	70
303.15 K, x2 = 0.3052	0.378	58
303.15 K, x2 = 0.387	0.397	–
303.15 K, x2 = 0.4282	0.4	45
303.15 K, x2 = 0.4761	0.424	–
303.15 K, x2 = 0.4918	0.415	39
303.15 K, x2 = 0.5871	0.445	–
303.15 K, x2 = 0.6161	0.432	30
303.15 K, x2 = 0.6533	0.441	–
303.15 K, x2 = 0.8022	0.397	20.8
303.15 K, x2 = 0.9028	0.283	16.9
303.15 K, x2 = 0.9592	0.164	–
308.15 K, x2 = 0	0.309	102
308.15 K, x2 = 0.1185	0.366	67
308.15 K, x2 = 0.2113	0.422	55
308.15 K, x2 = 0.3052	0.486	44
308.15 K, x2 = 0.4918	0.529	30
308.15 K, x2 = 0.5352	0.551	–
308.15 K, x2 = 0.5871	0.565	–
308.15 K, x2 = 0.6161	0.55	23.6
308.15 K, x2 = 0.6533	0.561	–
308.15 K, x2 = 0.6984	0.552	20.2
308.15 K, x2 = 0.8022	0.495	16.3
308.15 K, x2 = 0.9028	0.351	13.5
308.15 K, x2 = 0.9592	0.204	–
313.15 K, x2 = 0	0.384	79
313.15 K, x2 = 0.1185	0.455	53
313.15 K, x2 = 0.2113	0.524	42
313.15 K, x2 = 0.387	0.627	–
313.15 K, x2 = 0.4282	0.635	27
313.15 K, x2 = 0.4918	0.665	24.4
313.15 K, x2 = 0.5871	0.698	–
313.15 K, x2 = 0.6161	0.676	18.8
313.15 K, x2 = 0.6533	0.693	–
313.15 K, x2 = 0.6984	0.675	16.3
313.15 K, x2 = 0.8022	0.607	13.1
313.15 K, x2 = 0.9028	0.426	11
318.15 K, x2 = 0	0.421	62
318.15 K, x2 = 0.1185	0.558	42
318.15 K, x2 = 0.2113	0.641	34
318.15 K, x2 = 0.387	0.766	–
318.15 K, x2 = 0.4761	0.813	–
318.15 K, x2 = 0.5352	0.825	–
318.15 K, x2 = 0.5871	0.846	–
318.15 K, x2 = 0.6161	0.82	15.3
318.15 K, x2 = 0.6533	0.843	–
318.15 K, x2 = 0.6984	0.821	12.8
318.15 K, x2 = 0.8022	0.731	10.8
318.15 K, x2 = 0.9028	0.526	9.1
318.15 K, x2 = 0.9592	0.3	–
323.15 K, x2 = 0.1185	0.665	35
323.15 K, x2 = 0.2113	0.76	28
323.15 K, x2 = 0.387	0.915	–
323.15 K, x2 = 0.4282	0.918	18.3
323.15 K, x2 = 0.4918	0.945	16.1
323.15 K, x2 = 0.5871	1	–
323.15 K, x2 = 0.6161	0.971	12.8
323.15 K, x2 = 0.6533	0.999	–
323.15 K, x2 = 0.6984	0.972	11.1
323.15 K, x2 = 0.8022	0.861	9.1
323.15 K, x2 = 0.9028	0.619	7.7
323.15 K, x2 = 0.9592	0.351	–

NCCO + CCCC[n+]1ccn(C)c1.F[P-](F)(F)(F)(F)F
x1 = 1
Details	electrical conductivity [S/m]	viscosity [mPa·s]
298.15 K	0.0023	18.6
303.15 K	0.0027	15
308.15 K	0.0032	11.9
313.15 K	0.0036	9.9
323.15 K	0.0069	7

CCCC[n+]1ccn(C)c1.F[P-](F)(F)(F)(F)F + CN(C)CCO
x2 = 0
Details	electrical conductivity [S/m]	viscosity [mPa·s]
288.15 K	0.105	350
293.15 K	0.142	250
298.15 K	0.185	182
303.15 K	0.24	136
308.15 K	0.309	102
313.15 K	0.384	79
318.15 K	0.421	62
323.15 K	0.504	48

CN(C)CCO + CCCC[n+]1ccn(C)c1.F[P-](F)(F)(F)(F)F
Details	electrical conductivity [S/m]	viscosity [mPa·s]
288.15 K, x1 = 0.1221	0.12	213
288.15 K, x1 = 0.2143	0.14	159
288.15 K, x1 = 0.4405	–	81
288.15 K, x1 = 0.4637	0.179	–
288.15 K, x1 = 0.605	0.206	46
288.15 K, x1 = 0.9128	0.135	9.5
288.15 K, x1 = 1	0.082	5
293.15 K, x1 = 0.1221	0.161	157
293.15 K, x1 = 0.3182	0.203	88
293.15 K, x1 = 0.3764	0.226	–
293.15 K, x1 = 0.605	0.264	35
293.15 K, x1 = 0.709	0.266	23
293.15 K, x1 = 0.9128	0.16	8
293.15 K, x1 = 1	0.091	4.3
298.15 K, x1 = 0.2143	0.242	88
298.15 K, x1 = 0.3182	0.263	66
298.15 K, x1 = 0.3764	0.285	–
298.15 K, x1 = 0.4405	–	46
298.15 K, x1 = 0.5166	0.322	36
298.15 K, x1 = 0.605	0.333	27
298.15 K, x1 = 0.709	0.332	18.2
298.15 K, x1 = 0.8063	0.297	11.8
303.15 K, x1 = 0.1221	0.272	88
303.15 K, x1 = 0.2143	0.311	68
303.15 K, x1 = 0.3182	0.341	51
303.15 K, x1 = 0.4637	0.389	–
303.15 K, x1 = 0.5166	0.403	28
303.15 K, x1 = 0.605	0.414	21.4
303.15 K, x1 = 0.709	0.404	14.7
303.15 K, x1 = 0.9128	0.218	5.6
303.15 K, x1 = 1	0.11	3.2
308.15 K, x1 = 0.1221	0.348	67
308.15 K, x1 = 0.2143	0.396	52
308.15 K, x1 = 0.3182	0.431	39
308.15 K, x1 = 0.3764	0.461	–
308.15 K, x1 = 0.5166	0.502	22.4
308.15 K, x1 = 0.605	0.51	17
308.15 K, x1 = 0.709	0.49	11.9
308.15 K, x1 = 0.8063	0.423	8
308.15 K, x1 = 0.9128	0.252	4.8
308.15 K, x1 = 1	0.12	2.9
313.15 K, x1 = 0.1221	0.434	53
313.15 K, x1 = 0.2143	0.491	41
313.15 K, x1 = 0.3182	0.531	31
313.15 K, x1 = 0.3764	0.564	–
313.15 K, x1 = 0.4405	–	22.6
313.15 K, x1 = 0.4637	0.589	–
313.15 K, x1 = 0.5166	0.606	18.1
313.15 K, x1 = 0.709	0.583	9.8
313.15 K, x1 = 0.8063	0.494	6.7
313.15 K, x1 = 0.9128	0.288	4.1
313.15 K, x1 = 1	0.131	2.5
318.15 K, x1 = 0.1221	0.531	42
318.15 K, x1 = 0.2143	0.599	33
318.15 K, x1 = 0.3182	0.648	25
318.15 K, x1 = 0.4405	–	18.6
318.15 K, x1 = 0.4637	0.713	–
318.15 K, x1 = 0.5166	0.727	14.9
318.15 K, x1 = 0.605	0.726	11.6
318.15 K, x1 = 0.709	0.682	8.3
318.15 K, x1 = 0.8063	0.571	5.7
318.15 K, x1 = 0.9128	0.326	3.6
318.15 K, x1 = 1	0.141	2.27
323.15 K, x1 = 0.1221	0.63	35
323.15 K, x1 = 0.2143	0.712	28
323.15 K, x1 = 0.3182	0.767	21.2
323.15 K, x1 = 0.4405	–	15.7
323.15 K, x1 = 0.4637	0.834	–
323.15 K, x1 = 0.605	0.841	9.9
323.15 K, x1 = 0.709	0.784	7.1
323.15 K, x1 = 0.8063	0.648	5
323.15 K, x1 = 0.9128	0.363	3.2
